Like-named read-outs stand apart in the source and are kept apart here.
How the values were obtained:
PmSiaT = biological target: T1, PmSiaT (Proteus mirabilis, UniProt B4EZY7); test: nanoDSF thermal shift assay, PmSiaT; type: binding; conditions: for Average 1 / Average 2 / Average 3 / Replicate 1 / Replicate 2 / Replicate 3: PmSiaT Tm; for Average 1: average of experiment 1; for Average 2: average of experiment 2; for Average 3: average of experiment 3; for Replicate 1: experiment 1, second capillary; for Replicate 2: experiment 2, second capillary; for Replicate 3: experiment 3, second capillary; for Tm 1: experiment 1, first capillary; for Tm2: experiment 2, first capillary; for Tm 3: experiment 3, first capillary; for ΔTm at 1250 µM: read-out: ΔTm average overall
T1 construct: made in house
T1 sequence (B4EZY7 1-496): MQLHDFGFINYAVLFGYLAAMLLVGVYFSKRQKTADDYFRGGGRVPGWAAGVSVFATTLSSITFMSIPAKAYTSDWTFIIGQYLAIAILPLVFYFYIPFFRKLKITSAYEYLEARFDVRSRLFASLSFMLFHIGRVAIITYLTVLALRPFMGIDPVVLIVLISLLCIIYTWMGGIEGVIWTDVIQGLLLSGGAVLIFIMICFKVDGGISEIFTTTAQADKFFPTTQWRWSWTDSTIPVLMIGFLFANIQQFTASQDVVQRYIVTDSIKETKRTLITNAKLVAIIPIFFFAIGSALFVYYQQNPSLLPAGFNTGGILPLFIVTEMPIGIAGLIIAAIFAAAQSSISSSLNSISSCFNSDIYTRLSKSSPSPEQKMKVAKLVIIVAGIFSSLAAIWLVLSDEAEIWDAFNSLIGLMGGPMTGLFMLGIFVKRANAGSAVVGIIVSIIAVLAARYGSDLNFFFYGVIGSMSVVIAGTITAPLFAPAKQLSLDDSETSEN
Method: (§1) Nano-differential scanning fluorimetry (nanoDSF) is a high-throughput method that relies on the thermal stabilization of the folded protein state by a bound ligand.[33]
(§2) The melting points of protein–inhibitor complexes were measured on a Prometheus NT.48 instrument from NanoTemper Technologies. Solutions containing the protein at 2 μM in phosphate buffered saline with 0.0174% (w/v) dodecylmaltoside (DDM) and the ligand at 1.25 mM were loaded onto standard capillaries by NanoTemper. The temperature was increased from 25 to 95 °C at a ramp rate of 1 °C/min. The fluorescence was recorded at 330 and 350 nm and as a ratio of the two wavelengths.
(§3) The intensity ratio and its first derivative were calculated using manufacturer’s software (PR.ThermControl, version 2.1.2).
(§4) The melting temperatures have been measured in 3 separate experiments. In each experiment, two capillaries were included per compound, having therefore 2 technical replicates per experiment. In the table all data is presented. Tm1 and Replicate 1 represent the two replicates of the first experiment. Average 1 is the average between Tm 1 and Replicate 1. ΔTm 1 is the thermal shift when compared to the Tm of Neu5Ac. This is calculated from Average 1. The ΔTm presented in the article are the ΔTm average overall, which represent the overall average of the averages from the three experiments. The standard deviation (SD) is calculated from the […]

SaSiaT = SaSiaT (Staphylococcus aureus, UniProt A0A0H2XJ46); test: nanoDSF thermal shift assay, SaSiaT; type: binding; conditions: for Average 1 / Average 2 / Average 3 / Replicate 1 / Replicate 2 / Replicate 3: SaSiaT Tm; for Average 1: average of experiment 1; for Average 2: average of experiment 2; for Average 3: average of experiment 3; for Replicate 1: experiment 1, second capillary; for Replicate 1 / Replicate 2 / Replicate 3 / Tm 1 / Tm2 / Tm 3 / Overall average (Tm): 1.25 mM; for Replicate 2: experiment 2, second capillary; for Replicate 3: experiment 3, second capillary; for Tm 1 / Tm2 / Tm 3 / Overall average (Tm): SaSiaT; for Tm 1: experiment 1, first capillary; for Tm2: experiment 2, first capillary; for Tm 3: experiment 3, first capillary; for Overall average (Tm): three experiments
Method: as §1, §2, §3, §4

[1] = PmSiaT, experiment 1, vs Neu5Ac, read-out: ΔTm 1
[2] = PmSiaT, experiment 2, vs Neu5Ac, read-out: ΔTm 2
[3] = PmSiaT, experiment 3, vs Neu5Ac, read-out: ΔTm 3
[4] = PmSiaT, three experiments, 1.25 mM
[5] = PmSiaT, three experiments, vs Neu5Ac, 1.25 mM

SaSiaT, sequence (A0A0H2XJ46 entry or part of it): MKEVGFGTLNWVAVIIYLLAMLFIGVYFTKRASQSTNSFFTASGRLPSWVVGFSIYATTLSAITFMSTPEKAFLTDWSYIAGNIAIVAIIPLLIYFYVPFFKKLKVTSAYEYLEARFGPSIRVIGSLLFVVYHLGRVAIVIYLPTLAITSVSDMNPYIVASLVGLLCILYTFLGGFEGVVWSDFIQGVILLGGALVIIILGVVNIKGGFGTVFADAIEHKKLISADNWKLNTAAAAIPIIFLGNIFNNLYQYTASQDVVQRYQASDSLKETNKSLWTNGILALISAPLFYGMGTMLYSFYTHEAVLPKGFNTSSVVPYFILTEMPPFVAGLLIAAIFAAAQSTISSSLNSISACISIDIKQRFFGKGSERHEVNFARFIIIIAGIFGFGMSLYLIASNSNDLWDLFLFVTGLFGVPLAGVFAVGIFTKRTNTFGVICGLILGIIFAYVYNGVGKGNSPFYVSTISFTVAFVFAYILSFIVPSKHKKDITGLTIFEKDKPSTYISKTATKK

Compound | Average 2 (PmSiaT) [°C] | Average 3 (PmSiaT) [°C] | Replicate 1 (PmSiaT; 1.25 mM) [°C] | Replicate 2 (PmSiaT; 1.25 mM) [°C] | Replicate 3 (PmSiaT; 1.25 mM) [°C] | Tm 1 (PmSiaT; PmSiaT, 1.25 mM) [°C] | ΔTm (PmSiaT; [1]) [°C] | Tm2 (PmSiaT; PmSiaT, 1.25 mM) [°C] | Tm 3 (PmSiaT; PmSiaT, 1.25 mM) [°C] | Tm average overall (PmSiaT; [4]) [°C] | Average 1 (SaSiaT) [°C] | Average 2 (SaSiaT) [°C] | Average 3 (SaSiaT) [°C] | Replicate 1 (SaSiaT) [°C] | Replicate 2 (SaSiaT) [°C] | Replicate 3 (SaSiaT) [°C] | Tm 1 (SaSiaT) [°C] | Tm2 (SaSiaT) [°C] | Tm 3 (SaSiaT) [°C] | Overall average (Tm) (SaSiaT) [°C] | further results
CC(=O)NC1C(OCc2ccc(F)cc2)CC(O)(C(=O)O)OC1C(O)C(O)CO (stereo not drawn) [Compound 3b] | 53.2 | 53.1 | 53.4 | 53.4 | 53.2 | 53.1 | 4.2 | 53.1 | 53.0 | 53.2 | 56.4 | 56.2 | 56.7 | 56.4 | 56.2 | 56.4 | 56.4 | 56.3 | 56.9 | 56.4 | Average 1 (PmSiaT): 53.2 °C; ΔTm (PmSiaT; [2]): 4 °C; ΔTm (PmSiaT; [3]): 3.8 °C; ΔTm at 1250 µM (PmSiaT; [5]): 4 °C
CC(=O)NC1C(OCc2ccc(Br)cc2)CC(O)(C(=O)O)OC1C(O)C(O)CO (stereo not drawn) [Compound 3c] | 55.9 | 56.0 | 56.7 | 56.0 | 56.1 | 56.6 | 7.7 | 55.8 | 56.0 | 56.2 | 54.2 | 53.5 | 54.5 | 54.4 | 53.5 | 54.4 | 54.1 | 53.5 | 54.5 | 54.1 | Average 1 (PmSiaT): 56.7 °C; ΔTm (PmSiaT; [2]): 6.7 °C; ΔTm (PmSiaT; [3]): 6.7 °C; ΔTm at 1250 µM (PmSiaT; [5]): 7 °C
CC(=O)NC1C(OCc2ccc(C#N)cc2)CC(O)(C(=O)O)OC1C(O)C(O)CO (stereo not drawn) [Compound 3d] | 53.7 | 54.1 | 55.4 | 53.8 | 54.1 | 55.2 | 6.3 | 53.6 | 54.2 | 54.4 | 54.4 | 53.6 | 53.0 | 54.3 | 53.6 | 53.9 | 54.4 | 53.6 | 52.0 | 53.7 | Average 1 (PmSiaT): 55.3 °C; ΔTm (PmSiaT; [2]): 4.5 °C; ΔTm (PmSiaT; [3]): 4.8 °C; ΔTm at 1250 µM (PmSiaT; [5]): 5.2 °C
CCC(=O)NC1C(O)CC(O)(C(=O)O)OC1C(O)C(O)CO (stereo not drawn) [Compound 6a] | 46.8 | 46.7 | 46.8 | 46.8 | 46.6 | 46.8 | -2.2 | 46.8 | 46.7 | 46.8 | 40.8 | 41.9 | 42.2 | 40.9 | 41.8 | 42.1 | 40.8 | 42.0 | 42.3 | 41.6 | ΔTm (PmSiaT; [2]): -2.4 °C; ΔTm (PmSiaT; [3]): -2.6 °C; ΔTm at 1250 µM (PmSiaT; [5]): -2.4 °C
CC(C)C(=O)NC1C(O)CC(O)(C(=O)O)OC1C(O)C(O)CO (stereo not drawn) [Compound 6b] | 47.1 | 47.0 | 47.1 | 47.0 | 47.0 | 47.1 | -1.9 | 47.2 | 47.0 | 47.1 | 45.1 | 44.6 | 45.2 | 45.0 | 44.6 | 45.1 | 45.1 | 44.6 | 45.3 | 45.0 | ΔTm (PmSiaT; [2]): -2.1 °C; ΔTm (PmSiaT; [3]): -2.3 °C; ΔTm at 1250 µM (PmSiaT; [5]): -2.1 °C
CC(C)(C)C(=O)NC1C(O)CC(O)(C(=O)O)OC1C(O)C(O)CO (stereo not drawn) [Compound 6c] | 46.7 | 46.7 | 46.3 | 46.7 | 46.6 | 46.6 | -2.5 | 46.7 | 46.7 | 46.6 | 43.5 | 44.2 | 43.8 | 43.4 | 44.1 | 43.6 | 43.6 | 44.2 | 43.9 | 43.8 | ΔTm (PmSiaT; [2]): -2.5 °C; ΔTm (PmSiaT; [3]): -2.6 °C; ΔTm at 1250 µM (PmSiaT; [5]): -2.5 °C
O=C(NC1C(O)CC(O)(C(=O)O)OC1C(O)C(O)CO)c1ccccc1 (stereo not drawn) [Compound 6d] | 45.9 | 45.7 | 45.2 | 45.9 | 45.9 | 45.1 | -3.8 | 45.8 | 45.5 | 45.6 | 46.2 | 45.6 | 46.0 | 46.1 | 45.8 | 45.6 | 46.2 | 45.4 | 46.4 | 45.9 | Average 1 (PmSiaT): 45.2 °C; ΔTm (PmSiaT; [2]): -3.3 °C; ΔTm (PmSiaT; [3]): -3.6 °C; ΔTm at 1250 µM (PmSiaT; [5]): -3.6 °C
O=C(Cc1ccccc1)NC1C(O)CC(O)(C(=O)O)OC1C(O)C(O)CO (stereo not drawn) [Compound 6e] | 46.2 | 46.0 | 45.5 | 46.0 | 45.9 | 45.2 | -3.6 | 46.3 | 46.1 | 45.8 | 51.2 | 51.0 | 51.4 | 51.3 | 51.1 | 51.1 | 51.2 | 51.0 | 51.8 | 51.2 | Average 1 (PmSiaT): 45.4 °C; ΔTm (PmSiaT; [2]): -3 °C; ΔTm (PmSiaT; [3]): -3.3 °C; ΔTm at 1250 µM (PmSiaT; [5]): -3.3 °C
O=C(CF)NC1C(O)CC(O)(C(=O)O)OC1C(O)C(O)CO (stereo not drawn) [Compound 6f] | 47.6 | 47.4 | 47.4 | 47.6 | 47.3 | 47.4 |  | 47.7 | 47.4 | 47.5 | 52.0 | 51.2 | 51.9 | 52.0 | 51.2 | 51.8 | 52.0 | 51.2 | 52.1 | 51.7 | Average 1 (PmSiaT): 47.4 °C; ΔTm at 1250 µM (PmSiaT): -1.7 °C
